Here are results for 23 compounds from patent US9527851B2, “Pyrrole six-membered heteroaryl ring derivative, preparation method thereof, and medicinal uses thereof” (Jiangsu Hengrui Medicine Co., Ltd., priority 2011, dated 2016).

The target of one data set is JAK1 kinase (Homo sapiens (Human), UniProt P23458). Nature of the data set: Assay for inhibiting JAK1 kinase (in vitro kinase assay, HRP anti-phosphotyrosine antibody/TMB absorbance). The note with it: 20 μM ATP, 50 minutes at room temperature; read-out: IC50 (JAK1/Bio). The format is biochemical. The method, then:
In vitro activity of compounds of the present invention for inhibiting JAK1 kinase was determined by the following method.
IC50 values of test compounds was calculated from the data of the test compounds in inhibiting the activity of JAK1 kinase at different concentrations.

Data set [1] can be described thus: Pharmacokinetics assay in rats, intragastric administration, plasma by LC/MS/MS. The format is in vivo, Sprague-Dawley (SD) rats. The note with it: SD rats, 10 mg/kg. How it is done:
Rats were used as test animals. […] The pharmacokinetic behavior of the compounds of the present invention was studied and evaluated in rats.
56 Healthy adult Sprague-Dawley (SD) rats, half male and half female, purchased from SINO-BRITSH SIPPR/BK LAB.
The appropriate amount of test compounds were weighed and mixed with 1.0 mL of dimethyl sulfoxide to prepare a 1.0 mg/mL suspension.
After an overnight fast, SD rats were administered intragastrically at a dose of 10.0 mg/kg and an administration volume of 10 mL/kg.
The plasma samples were stored at −20° C. The rats were fed 2 hours after administration.
Content determination of the test compounds in rat plasma after intragastrically administering at different concentrations: 50 μL of rat plasmas taken at various time points after administration were mixed with 50 μL of internal standard solution and 100 μL of methanol and mixed for 3 minutes by a vortexer. The mixture was centrifuged for 10 minutes at 13,500 rpm. 10 μL of the supernatant was taken from the plasma sample and analyzed by LC-MS/MS.
Pharmacokinetic Parameters of the compounds of the present invention were shown as follows: […]

Sequence of JAK1 kinase (P23458 whole entry): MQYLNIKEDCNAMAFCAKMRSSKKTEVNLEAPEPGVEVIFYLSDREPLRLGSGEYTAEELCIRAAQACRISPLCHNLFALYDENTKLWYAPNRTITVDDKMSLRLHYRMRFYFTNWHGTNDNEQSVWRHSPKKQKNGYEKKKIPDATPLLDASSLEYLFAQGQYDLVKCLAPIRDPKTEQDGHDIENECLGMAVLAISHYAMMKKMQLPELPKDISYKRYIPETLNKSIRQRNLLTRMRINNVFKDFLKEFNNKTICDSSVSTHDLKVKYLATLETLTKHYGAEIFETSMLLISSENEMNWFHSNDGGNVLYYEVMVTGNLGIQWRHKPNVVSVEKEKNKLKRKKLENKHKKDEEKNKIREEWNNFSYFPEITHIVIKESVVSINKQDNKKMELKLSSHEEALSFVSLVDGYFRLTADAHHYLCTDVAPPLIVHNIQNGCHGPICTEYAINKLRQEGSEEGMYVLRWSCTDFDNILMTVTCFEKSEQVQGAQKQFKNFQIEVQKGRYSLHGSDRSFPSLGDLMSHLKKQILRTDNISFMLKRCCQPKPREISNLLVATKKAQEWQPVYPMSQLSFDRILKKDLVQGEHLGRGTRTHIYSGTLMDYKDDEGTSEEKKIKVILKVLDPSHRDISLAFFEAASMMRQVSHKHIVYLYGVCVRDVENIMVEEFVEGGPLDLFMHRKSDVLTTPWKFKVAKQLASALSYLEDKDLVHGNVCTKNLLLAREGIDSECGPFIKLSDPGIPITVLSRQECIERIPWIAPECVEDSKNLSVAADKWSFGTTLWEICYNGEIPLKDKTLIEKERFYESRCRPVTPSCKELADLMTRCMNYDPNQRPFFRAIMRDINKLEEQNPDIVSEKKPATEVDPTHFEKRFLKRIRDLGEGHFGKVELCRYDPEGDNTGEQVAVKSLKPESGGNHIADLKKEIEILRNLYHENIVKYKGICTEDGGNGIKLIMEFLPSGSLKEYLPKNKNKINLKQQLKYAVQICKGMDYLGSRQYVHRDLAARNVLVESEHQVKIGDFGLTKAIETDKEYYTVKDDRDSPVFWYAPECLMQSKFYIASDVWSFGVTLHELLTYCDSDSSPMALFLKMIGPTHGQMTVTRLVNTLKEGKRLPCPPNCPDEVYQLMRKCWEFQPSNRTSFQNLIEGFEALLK

With `CN(c1ncnc2[nH]ccc12)[C@H]1C[C@@H]2CN(C(=O)OC(C)(C)C)C[C@@H]2C1` [Example 5, (3aR,5S,6aS)-tert-butyl 5-(methyl(7H-pyrrolo[2,3-d]pyrimidin-4-yl)amino)hexahydro cyclopenta[c]pyrrole-2(1H)-carboxylate], the IC50 at JAK1 kinase turned out to be 30 nM.

`CN(c1ncnc2[nH]ccc12)[C@H]1C[C@@H]2CN(C(=O)CC#N)C[C@@H]2C1` [Example 8, 3-((3aR,5S,6aS)-5-(Methyl(7H-pyrrolo[2,3-d]pyrimidin-4-yl)amino)hexahydrocyclopenta[c]pyrrol-2(1H)-yl)-3-oxopropanenitrile]: the IC50 on JAK1 kinase is 32 nM.

In the case of `CC(=O)N1C[C@H]2C[C@H](N(C)c3ncnc4[nH]ccc34)C[C@H]2C1` [Example 11, 1-((3aR,5S,6aS)-5-(Methyl(7H-pyrrolo[2,3-d]pyrimidin-4-yl)amino)hexahydrocyclopenta[c]pyrrol-2(1H)-yl)ethanone], on JAK1 kinase, the IC50 is 33 nM.

Take `CN(c1ncnc2[nH]ccc12)[C@H]1C[C@@H]2CN(C(=O)C3CC3)C[C@@H]2C1` [Example 13, Cyclopropyl((3aR,5S,6aS)-5-(methyl(7H-pyrrolo[2,3-d]pyrimidin-4-yl)amino)hexahydrocyclopenta[c]pyrrol-2(1H)-yl)methanone]: on JAK1 kinase, the IC50 was 30 nM.

Consider `CN(c1ncnc2[nH]ccc12)[C@H]1C[C@@H]2CN(S(=O)(=O)C3CC3)C[C@@H]2C1` [Example 15, N-((3aR,5S,6aS)-2-(Cyclopropylsulfonyl)octahydrocyclopenta[c]pyrrol-5-yl)-N-methyl-7H-pyrrolo[2,3-d]pyrimidin-4-amine], for which the IC50 at JAK1 kinase amounted to 80 nM.

Consider `COCC(=O)N1C[C@H]2C[C@H](N(C)c3ncnc4[nH]ccc34)C[C@H]2C1` [Example 18, 2-Methoxy-1-((3aR,5S,6aS)-5-(methyl(7H-pyrrolo[2,3-d]pyrimidin-4-yl)amino)hexahydrocyclopenta[c]pyrrol-2(1H)-yl)ethanone], for which the IC50 on JAK1 kinase was determined as 49 nM.

For the compound `C[C@@H](O)C(=O)N1C[C@H]2C[C@H](N(C)c3ncnc4[nH]ccc34)C[C@H]2C1` [Example 19, (R)-2-Hydroxy-1-((3aR,5S,6aS)-5-(methyl(7H-pyrrolo[2,3-d]pyrimidin-4-yl)amino)hexahydrocyclopenta[c]pyrrol-2(1H)-yl)propan-1-one], on JAK1 kinase, the IC50 was 48 nM.

Take `CN(c1ncnc2[nH]ccc12)[C@H]1C[C@@H]2CN(C(=O)CNS(C)(=O)=O)C[C@@H]2C1` [Example 21, N-(2-((3aR,5S,6aS)-5-(Methyl(7H-pyrrolo[2,3-d]pyrimidin-4-yl)amino)hexahydrocyclopenta[c]pyrrol-2(1H)-yl)-2-oxoethyl)methanesulfonamide]: the IC50 at JAK1 kinase was 17 nM.

Take `CN(c1ncnc2[nH]ccc12)[C@@H]1C[C@@H]2CN(C(=O)CO)C[C@@H]2C1` [Example 23, 2-Hydroxy-1-((3aR,5R,6aS)-5-(methyl(7H-pyrrolo[2,3-d]pyrimidin-4-yl)amino)hexahydrocyclopenta[c]pyrrol-2(1H)-yl)ethanone]: the IC50 at JAK1 kinase is 21 nM.

As for `CN(c1ncnc2[nH]ccc12)[C@H]1C[C@@H]2CN(CC#N)C[C@@H]2C1` [Example 26, 2-((3aR,5S,6aS)-5-(Methyl(7H-pyrrolo[2,3-d]pyrimidin-4-yl)amino)hexahydrocyclopenta[c]pyrrol-2(1H)-yl)acetonitrile], the IC50 on JAK1 kinase amounted to 46 nM.

On to `CN(c1ncnc2[nH]ccc12)[C@H]1C[C@@H]2CN(CCC#N)C[C@@H]2C1` [Example 27, 3-((3aR,5S,6aS)-5-(Methyl(7H-pyrrolo[2,3-d]pyrimidin-4-yl)amino)hexahydrocyclopenta[c]pyrrol-2(1H)-yl)propanenitrile], for which the IC50 at JAK1 kinase is 30 nM.

With `CN(c1ncnc2[nH]ccc12)[C@H]1C[C@@H]2CN(S(C)(=O)=O)C[C@@H]2C1` [Example 51, N-methyl-N-((3aR,5S,6aS)-2-(methylsulfonyl)octahydrocyclopenta[c]pyrrol-5-yl)-7H-pyrrolo[2,3-d]pyrimidin-4-amine], on JAK1 kinase, the IC50 was found to be 100 nM.

For the compound `C[C@H](O)C(=O)N1C[C@H]2C[C@@H](N(C)c3ncnc4[nH]ccc34)C[C@H]2C1` [Example 71, (S)-2-hydroxy-1-((3aR,5S,6aS)-5-(methyl(7H-pyrrolo[2,3-d]pyrimidin-4-yl)amino)hexahydrocyclopenta[c]pyrrol-2(1H)-yl)propan-1-one], at JAK1 kinase, the IC50 was found to be 36 nM.

Take `C[C@@H](O)C(=O)N1C[C@H]2C[C@@H](N(C)c3ncnc4[nH]ccc34)C[C@H]2C1` [Example 72, (R)-2-hydroxy-1-((3aR,5R,6aS)-5-(methyl(7H-pyrrolo[2,3-d]pyrimidin-4-yl)amino)hexahydrocyclopenta[c]pyrrol-2(1H)-yl)propan-1-one]: the IC50 on JAK1 kinase is 42 nM.

On to `CNC(=O)N1C[C@H]2C[C@H](N(C)c3ncnc4[nH]ccc34)C[C@H]2C1` [Example 80, (3aR,5S,6aS)-N-methyl-5-(methyl(7H-pyrrolo[2,3-d]pyrimidin-4-yl)amino)hexahydrocyclopenta[c]pyrrole-2(1H)-carboxamide], for which the IC50 on JAK1 kinase worked out at 127 nM.

Take `CN(c1ncnc2[nH]ccc12)[C@H]1C[C@@H]2CN(C(=O)[C@H](O)c3ccccc3)C[C@@H]2C1` [Example 81, (R)-2-hydroxy-1-((3aR,5S,6aS)-5-(methyl(7H-pyrrolo[2,3-d]pyrimidin-4-yl)amino)hexahydrocyclopenta[c]pyrrol-2(1H)-yl)-2-phenylethanone]: at JAK1 kinase, the IC50 is 113 nM.

As for `CC(C#N)C(=O)N1C[C@H]2C[C@H](N(C)c3ncnc4[nH]ccc34)C[C@H]2C1` (stereo partly drawn) [Example 82, 2-methyl-3-((3aR,5S,6aS)-5-(methyl(7H-pyrrolo[2,3-d]pyrimidin-4-yl)amino)hexahydrocyclopenta[c]pyrrol-2(1H)-yl)-3-oxopropanenitrile], the IC50 on JAK1 kinase is 49 nM.

Turning to `CN(c1ncnc2[nH]ccc12)[C@H]1C[C@@H]2CN(C(=O)C(C)(C)O)C[C@@H]2C1` [Example 83, 2-hydroxy-2-methyl-1-((3aR,5S,6aS)-5-(methyl(7H-pyrrolo[2,3-d]pyrimidin-4-yl)amino)hexahydrocyclopenta[c]pyrrol-2(1H)-yl)propan-1-one], on JAK1 kinase, the IC50 was determined as 50 nM.

For `CN(c1ncnc2[nH]ccc12)[C@H]1C[C@@H]2CN(C(=O)Cc3nn[nH]n3)C[C@@H]2C1` [Example 85, 1-((3aR,5S,6aS)-5-(methyl(7H-pyrrolo[2,3-d]pyrimidin-4-yl)amino)hexahydrocyclopenta[c]pyrrol-2(1H)-yl)-2-(2H-tetrazol-5-yl)ethanone], the IC50 at JAK1 kinase was found to be 80 nM.

On to `CC[C@H](O)C(=O)N1C[C@H]2C[C@H](N(C)c3ncnc4[nH]ccc34)C[C@H]2C1` [Example 93, (S)-2-hydroxy-1-((3aR,5R,6aS)-5-(methyl(7H-pyrrolo[2,3-d]pyrimidin-4-yl)amino)hexahydrocyclopenta[c]pyrrol-2(1H)-yl)butan-1-one], for which the IC50 at JAK1 kinase was found to be 70 nM.

One may read the AUC as concentration integrated over time. As usually defined, the half-life is the time needed for the level to fall by half in the phase considered. As usually defined, the MRT is the average time that molecules of a dose stay in the body. The Cmax is the maximum level reached in the sampled fluid or tissue. On to `CN(c1ncnc2[nH]ccc12)[C@H]1C[C@@H]2CN(C(=O)Nc3nc(OCC(C)(C)O)ns3)C[C@@H]2C1` [Example 99, (3aR,5S,6aS)-N-(3-(2-hydroxy-2-methylpropoxy)-1,2,4-thiadiazol-5-yl)-5-(methyl(7H-pyrrolo[2,3-d]pyrimidin-4-yl)amino)hexahydrocyclopenta[c]pyrrole-2(1H)-carboxamide], for which, in data set [1] (both sexes, Sprague-Dawley, rat, plasma, po, read-out: Apparent Distribution Volume Vz/F), the Vd/F is 2.76 ± 1.53 L/kg. Also, in data set [1] (both sexes, Sprague-Dawley, rat, plasma, po, read-out: Area Under Curve AUC), the AUC is 14900 ± 10400 ng·h/mL. In data set [1] (both sexes, Sprague-Dawley, rat, plasma, po, read-out: Clearance CL/F), the CL/F stood at 18.3 ± 14.2 mL/min/kg. Also, the half-life in data set [1] (both sexes, Sprague-Dawley, rat, plasma, po, read-out: Half-Life t½ (converted)) was 2.1 ± 0.73 h. In data set [1] (both sexes, Sprague-Dawley, rat, plasma, po, read-out: Mean Residence Time MRT), the MRT worked out at 3.81 ± 0.82 h. In data set [1] (both sexes, Sprague-Dawley, rat, plasma, po, read-out: Plasma Conc. Cmax), the Cmax amounted to 2670 ± 1450 ng/mL.

For the compound `CCc1nsc(NC(=O)N2C[C@H]3C[C@H](N(C)c4ncnc5[nH]ccc45)C[C@H]3C2)n1` [Example 121, (3aR,5S,6aS)-N-(3-ethyl-1,2,4-thiadiazol-5-yl)-5-(methyl(7H-pyrrolo[2,3-d]pyrimidin-4-yl)amino)hexahydrocyclopenta[c]pyrrole-2(1H)-carboxamide], in data set [1], the “Apparent Distribution Volume Vz/F” value amounted to 7.203 ± 8.113 L/kg, the “Area Under Curve AUC” value turned out to be 9617 ± 7909 ng·h/mL, the “Clearance CL/F” value amounted to 31.9 ± 26.9 mL/min/kg and the “Mean Residence Time MRT” value worked out at 3.40 ± 0.91 h. Besides, the “Plasma Conc. Cmax” value in data set [1] stood at 2071 ± 1473 ng/mL.

Consider `CN(c1ncnc2[nH]ccc12)[C@H]1C[C@@H]2CN(C(=O)Nc3nc(C4CC4)ns3)C[C@@H]2C1` [Example 125, (3aR,5S,6aS)-N-(3-cyclopropyl-1,2,4-thiadiazol-5-yl)-5-(methyl(7H-pyrrolo[2,3-d]pyrimidin-4-yl)amino)hexahydrocyclopenta[c]pyrrole-2(1H)-carboxamide], for which, in data set [1], the “Apparent Distribution Volume Vz/F” value amounted to 18.063 ± 20.748 L/kg, the “Area Under Curve AUC” value was found to be 5997 ± 4741 ng·h/mL, the “Clearance CL/F” value amounted to 46.1 ± 35.6 mL/min/kg and the “Plasma Conc. Cmax” value came out at 1061 ± 677 ng/mL.
